Laboratory results taken from PMC12150283, “Synthesis of new Ag(I) and Cd(II) hydrozanomide-based complexes with antibacterial and anticancer properties” (RSC Advances, 2025).
Like-named read-outs stand apart in the source and are kept apart here.

Columns and labels:
[1] = test system: Bacillus cereus ŁOCK 0807; assay: MIC determination; format: cell-based; conditions: Bacillus cereus ŁOCK 0807; 18 h
Experimental: (§1) The antibacterial activity of tested samples was assessed against both gram-positive bacteria (Staphylococcus aureus ATCC 25923, Staphylococcus aureus ATCC 6538, Staphylococcus epidermidis ATCC 12228, Enterococcus faecalis ATCC 29212, Listeria monocytogenes ATCC 19115, Bacillus subtilis ATCC 6633, Bacillus cereus ATCC 10876) and gram-negative bacteria (Escherichia coli ATCC 10530, Salmonella typhimurium ATCC 14028). Antibacterial properties were evaluated using both the dilution method (employing DMSO and 96-well plates) and the diffusion-well method (using Mueller Hinton Agar, Merck, Germany).
(§2) The minimum inhibitory concentrations (MICs) of the tested samples were evaluated against a panel of reference microorganisms obtained from the American Type Culture Collection (ATCC), including Gram-negative bacteria (Escherichia coli ATCC 10530, Salmonella typhimurium ATCC 14028), and Gram-positive bacteria (Staphylococcus aureus ATCC 25923, Staphylococcus aureus ATCC 6538, Staphylococcus epidermidis ATCC 12228, Enterococcus faecalis ATCC 29212, Listeria monocytogenes ATCC 19115, Bacillus subtilis ATCC 6633), and one strain (Bacillus cereus ŁOCK 0807) obtained from the Pure Culture of Industrial Microorganisms of the Institute of Fermentation Technology and Microbiology ŁOCK 105 (Łódź, Poland).
(§3) The microorganism cultures with a density of 1.5 × 10^8 CFU mL^−1 (corresponding to a McFarland standard of 0.5) were plated on Mueller–Hinton Agar (Merck, Germany) following the procedures recommended by the European Committee on Antimicrobial Susceptibility Testing (EUCAST).[47] Wells measuring 10 mm in diameter were cut into the medium. The tested compounds were dissolved in a DMSO solution, which was recommended due to their chemical structures. Subsequently, 100 μL of prepared solutions containing the tested compounds at concentrations ranging from x μg mL^−1 to x μg mL^−1 were added to each well. The plates were incubated at 30 °C (for Bacillus subtilis and Bacillus cereus) or 37 °C (for other bacteria) for 18 hours. After incubation, the minimum inhibitory concentration (MIC value) was determined (the lowest concentration of the tested compounds that prevents bacterial growth) and expressed in μg mL^−1. The experiment was conducted in three independent replicates. Ciprofloxacin (Sigma Aldrich, Saint Louis, MO, USA) was used as a reference antimicrobial agent against Gram-negative bacteria, while vancomycin (Sigma Aldrich, Saint Louis, MO, USA) was used as a reference antimicrobial agent against Gram-positive bacteria.

[2] = test system: Bacillus subtilis ATCC 6633; assay: MIC determination; format: cell-based; conditions: 18 h
Experimental: as §1, §2, §3

[3] = test system: Enterococcus faecalis ATCC 29212; assay: MIC determination; format: cell-based; conditions: E. faecalis ATCC 29212; 18 h
Experimental: as §1, §2, §3

[4] = test system: Escherichia coli ATCC 10530; assay: MIC determination; format: cell-based
Experimental: as §1, §2, §3

[5] = test system: Listeria monocytogenes ATCC 19115; assay: MIC determination; format: cell-based
Experimental: as §1, §2, §3

[6] = test system: Salmonella typhimurium ATCC 14028; assay: MIC determination; format: cell-based; conditions: S. typhimurium ATCC 14028; 18 h
Experimental: as §1, §2, §3

[7] = test system: Staphylococcus aureus ATCC 25923; assay: MIC determination; format: cell-based; conditions: S. aureus ATCC 25923; 18 h
Experimental: as §1, §2, §3

[8] = test system: Staphylococcus aureus ATCC 6538; assay: MIC determination; format: cell-based; conditions: S. aureus ATCC 6538; 18 h
Experimental: as §1, §2, §3

[9] = test system: Staphylococcus epidermidis ATCC 12228; assay: MIC determination; format: cell-based; conditions: S. epidermidis ATCC 12228; 18 h
Experimental: as §1, §2, §3

S. aureus ATCC 25923 = assay: Diffusion-well method, inhibition zones; format: cell-based, Staphylococcus aureus; conditions: 500 µg/mL, wells 10 mm
Experimental: as §1
(§4) 24 hour bacterial cultures with a density of 1–2 × 10^8 CFU mL^−1 were plated (0.1 mL) on Mueller–Hinton Agar (Merck, Germany). Subsequently, wells with a diameter of 10 mm were cut out from and filled with 100 μL of the tested compound at a concentration of 10–500 μg mL^−1 (diluted in DMSO). After an 18-hour incubation at either 30 °C (for Bacillus ssp.) or 37 °C (for other tested microorganisms), the inhibition zones around the wells were measured, and the results were expressed in millimetres (Table S9 ^†).

S. aureus ATCC 6538 = assay: Diffusion-well method, inhibition zones; format: cell-based, Staphylococcus aureus; conditions: 500 µg/mL, wells 10 mm
Experimental: as §1, §4

E. faecalis ATCC 29212 = assay: Diffusion-well method, inhibition zones; format: cell-based, Enterococcus faecalis; conditions: 500 µg/mL, wells 10 mm
Experimental: as §1, §4

B. cereus ŁOCK 0807 = assay: Diffusion-well method, inhibition zones; format: cell-based, Bacillus cereus; conditions: 500 µg/mL, wells 10 mm
[10] = test system: L. monocytogenes ATCC 19115; assay: Diffusion-well method, inhibition zones; format: cell-based, Listeria monocytogenes; conditions: 500 µg/mL, wells 10 mm
Experimental: as §1, §4

B. subtilis ATCC 6633 = assay: Diffusion-well method, inhibition zones; format: cell-based, Bacillus subtilis; conditions: 500 µg/mL, wells 10 mm
Experimental: as §1, §4

E. coli ATCC 10530 = assay: Diffusion-well method, inhibition zones; format: cell-based, Escherichia coli; conditions: 500 µg/mL, wells 10 mm
Experimental: as §1, §4

[11] = test system: S. Typhimurium ATCC 14028; assay: Diffusion-well method, inhibition zones; format: cell-based, Salmonella typhimurium; conditions: 500 µg/mL, wells 10 mm
Experimental: as §1, §4

[12] = test system: glioblastoma LN-229 cells; assay: MTT cell viability assay; format: cell-based, human; conditions: 48 hours of incubation
Experimental: (§5) The glioblastoma cell lines LN-229 and U87 and the reference human normal skin fibroblast BJ were obtained from the American Type Culture Collection (ATCC). Cells were grown as monolayers when cultured in cell culture flasks and cultured in Dulbecco's Modified Eagle Medium (DMEM) – LN-229 and Eagle's Minimum Essential Medium (EMEM) – U87 and BJ, supplemented with 10% (v/v) fetal bovine serum, penicillin (10 000 U mL^−1), streptomycin (10 mg mL^−1) and amphotericin B (250 μg mL^−1). The cells were incubated at 37 °C, 5% CO2 atmosphere. The cells were maintained in the logarithmic growth phase by regular passage at 80% confluence.
(§6) The cytotoxicity of the tested compounds was evaluated against both human glioblastoma LN-229 and U-87 as well as normal BJ cell lines. The cells were plated in 96-well culture plates (2 × 10^4 well) and after 24 h incubation the cells were treated with the tested compounds in the concentration range 1–50 μM. The cells were cultured for the next 48 h. The cytotoxicity of the compounds was evaluated using the MTT colorimetric method as previously described.[28,29] IC50 values were determined using the AAT Bioquest IC50 calculator as the concentration of compounds capable of reducing cell viability by 50%. The experiment was performed in triplicate for each concentration. To examine the cytotoxic effect of compounds on cell morphology, cells were examined under an inverted phase contrast microscope Nikon Eclipse Ti with NIS Element software (Tokyo, Japan).

glioblastoma U87 cells = assay: MTT cell viability assay; format: cell-based, human; conditions: 48 hours of incubation
Experimental: as §5, §6

[13] = test system: normal skin fibroblast BJ cells; assay: MTT cell viability assay; format: cell-based, human; conditions: BJ normal fibroblasts, 48 hours of incubation
Experimental: as §5, §6

[14] = Time-dependent UV-vis solution stability in DMSO; format: physicochemical; conditions: 0 min to 48 h, room temperature
Excerpt: The stability of metal complexes is a crucial property that provides insight into their interactions with biological molecules, as it directly impacts their reactivity, bioavailability, and effectiveness in therapeutic applications. Additionally, the solubility of these complexes in dimethyl sulfoxide (DMSO) is of considerable importance, as solubility data are essential for optimizing storage conditions and ensuring compatibility with biological assays.[39] DMSO, a widely used solvent in drug discovery, serves as a medium that supports the stability and bioavailability of complexes under assay conditions, which is critical for maintaining the integrity of analytical protocols and enabling accurate assessments of biological activity. For the obtained complexes, the time-dependent UV-vis investigations in DMSO (Fig. 5 and S9 ^†) were carried out from 0 min to 48 h (0 min, 30 min, 1 h, 2 h, 3 h, 24 h, 48 h).
The sample solutions (50 μL (1.0 × 10^−3 M)) of the complexes were prepared in DMSO (Sigma Aldrich, ≥99.9%). The absorption spectra of the complexes were measured with increasing time (0 min, 30 min, 60 min, 2 h, 3 h, 24 h, 48 h) at room temperature. All measurements were performed on the Shimadzu UV-2401PC.

[15] = test system: Staphylococcus aureus ATCC 25923; set-up: method as in earlier work; conditions: pure ligands, S. aureus ATCC 25923; previous study ref 29; cited from earlier work
[16] = test system: Staphylococcus epidermidis ATCC 12228; set-up: method as in earlier work; conditions: pure ligands, S. epidermidis ATCC 12228; previous study ref 29; cited from earlier work
[17] = test system: Enterococcus faecalis ATCC 29212; set-up: method as in earlier work; conditions: pure ligands, E. faecalis ATCC 29212; previous study ref 29; cited from earlier work
[18] = test system: Salmonella typhimurium ATCC 14028; set-up: method as in earlier work; conditions: pure ligands, S. typhimurium ATCC 14028; previous study ref 29; cited from earlier work
[19] = Escherichia coli ATCC 10530, 18 h
[20] = Listeria monocytogenes ATCC 19115, 18 h

| SMILES | MIC [1] | MIC [2] | MIC [3] | MIC [4, 19] | MIC [5, 20] | MIC [6] | MIC [7] | MIC [8] | MIC [9] | Inhibition zone (S. aureus ATCC 25923) | Inhibition zone (S. aureus ATCC 6538) | Inhibition zone (E. faecalis ATCC 29212) | Inhibition zone (B. cereus ŁOCK 0807) | Inhibition zone [10] | Inhibition zone (B. subtilis ATCC 6633) | Inhibition zone (E. coli ATCC 10530) | IC50 [12] | IC50 (glioblastoma U87 cells) | IC50 [13] | hypochromic effect [14] | further results |
| --- | --- | --- | --- | --- | --- | --- | --- | --- | --- | --- | --- | --- | --- | --- | --- | --- | --- | --- | --- | --- | --- |
| NC(=NN=Cc1ccc([N+](=O)[O-])cc1)c1cccc(Cl)n1.O=[N+]([O-])[O-].[Ag+] [Complex 2, AgL2NO3] | 50 µg/mL | 50 µg/mL | 50 µg/mL | 10 µg/mL | 10 µg/mL | 50 µg/mL | 50 µg/mL | 50 µg/mL | > 500 µg/mL | 19 mm | 22 mm | 14 mm | 18 mm | 19 mm | 16 mm | 20 mm | 37.2 ± 6.55 µM | > 50 µM | 14.5 ± 2.82 µM |  | MIC ([4]; Escherichia coli): 10 µg/mL; MIC ([5]; Listeria monocytogenes): 10 µg/mL; Inhibition zone [11]: 19 mm |
| NC(=NN=Cc1ccccc1)c1cc(Cl)ccn1.O=[N+]([O-])[O-].[Ag+] [Complex 3, AgL3NO3] | 50 µg/mL | 10 µg/mL | 50 µg/mL | 10 µg/mL | 10 µg/mL | 500 µg/mL | 100 µg/mL | 50 µg/mL | 250 µg/mL | 15 mm | 15 mm | 13 mm | 18 mm | 19 mm | 17 mm | 20 mm | > 50 µM | 32 ± 7.08 µM | > 50 µM | 2.31% |  |
| NC(=NN=Cc1ccc([N+](=O)[O-])cc1)c1cccc(Cl)n1.NC(=NN=Cc1ccc([N+](=O)[O-])cc1)c1cccc(Cl)n1.[Cd+2].[Cl-].[Cl-] [Complex 7, Cd (L2)2Cl2] | > 500 µg/mL | > 500 µg/mL | > 500 µg/mL | 500 µg/mL | > 500 µg/mL | > 500 µg/mL | 100 µg/mL | 500 µg/mL | > 500 µg/mL | 15 mm | 13 mm |  |  |  |  | 12 mm | > 50 µM | > 50 µM | 41.7 ± 4.18 µM | 27.7% | shift of peak maxima [14]: 15 nm |
| NC(=NN=Cc1ccccc1)c1cncc(Cl)n1 [Complex L1, N′-(benzylidene)-6-chloropyrazine-2-carbohydrazonamide] |  |  |  |  |  |  |  |  |  |  |  |  |  |  |  |  |  |  |  |  | IC50 ([12]; Homo sapiens): > 50 µM; IC50 (glioblastoma U87 cells; Homo sapiens, U-87 MG): > 50 µM; IC50 ([13]; Homo sapiens): > 50 µM; MIC [15]: 500 µg/mL; MIC [16]: 500 µg/mL; MIC [17]: 250 µg/mL; MIC [18]: >500 µg/mL |
